According to patent US7608242B2, “Peptide-chelate conjugates” (GE Healthcare Limited, priority 2001, dated 2009):
Ends that are not written are not given here. Peptide text beside a SMILES is read from it. * marks the point of attachment. X1 = CCOC(C)SCC(=O)NC(CCCC(=O)*)C(=O)NCC(=O)NCC(=O)O

Key:
[1] = system: T84 tumours subcutaneously; assay: Imaging in the subcutaneous tumour model (planar gamma camera); type: in vivo, mouse; conditions: HPLC purified, 20 MBq per animal
Method: Tumour to liver ratios were; 1.1 at 15 minutes, 2 at 60 minutes and 4 at 120 minutes.
Tumours were grown as in Example 17. Animals were monitored for tumour growth for 8 to 10 weeks, until tumours were 0.5-1 cm in size. After this time, animals were injected with test article (0.1 ml, 20 MBq/ml or 200 MBq/ml) as an intravenous bolus via the tail vein. At various times p.i. animals were euthanased and whole body planar images acquired between 5 minutes and 24 hours p.i. using a gamma camera (Park Medical Isocam-1). Image acquisition times were typically 15-30 min or 150-250K counts (whole body, LEUHR collimator).

[2] = system: T84 liver tumours; assay: Imaging in liver metastases model; type: in vivo, rat; conditions: image of Example 21 (FIG. 8)
Method: The image is a whole body image with background counts removed and kidneys masked. Image tumour:liver ratio was typically 2.5.
The liver metastases model was used in both mice and rats. As for the subcutaneous tumour model except in establishing tumours, cells were injected via the spleen and allowed to transfer to the liver via the circulation. Two minutes after injection of cells, a splenectomy was performed. Animals were allowed to generate tumours over 6-8 weeks.
Tumours were grown in animal as described in Example 20. Animals were monitored for tumour growth for 8 to 10 weeks, until tumours were 0.5-1 cm in size. After this time, animals were injected with test article (0.1 ml, 200 MBq/ml) as an intravenous bolus via the tail vein. At various times p.i. animals were euthanased and whole body planar images acquired between 5 minutes and 24 hours p.i. using a gamma camera (Park Medical Isocam-1). Image acquisition times were typically 15-30 min or 150-250K counts (whole body, LEUHR collimator). […] The image has the kidneys masked to improve the resolution of the imaged metastases.

[3] = system: sub-cutaneous T84 tumours; assay: Uptake of labelled conjugate and negative control into CRC tumours; type: in vivo, mouse; conditions: CD-1 nude mice bearing s.c. T84 tumours
[4] = target: T1, ST receptor (rat intestinal membrane) (Rattus norvegicus, UniProt P23897); assay: Radioactive binding assay of HPLC purified radiolabelled compounds; conditions: ca. 0.05 nM radiolabelled compound, 6 μg rat intestinal membrane, one hour
T1 construct: in 96 well plates containing ca. 1 μg rat intestinal membrane; from tissue; host or cells: rat intestinal membrane
T1 sequence (P23897 23-1072): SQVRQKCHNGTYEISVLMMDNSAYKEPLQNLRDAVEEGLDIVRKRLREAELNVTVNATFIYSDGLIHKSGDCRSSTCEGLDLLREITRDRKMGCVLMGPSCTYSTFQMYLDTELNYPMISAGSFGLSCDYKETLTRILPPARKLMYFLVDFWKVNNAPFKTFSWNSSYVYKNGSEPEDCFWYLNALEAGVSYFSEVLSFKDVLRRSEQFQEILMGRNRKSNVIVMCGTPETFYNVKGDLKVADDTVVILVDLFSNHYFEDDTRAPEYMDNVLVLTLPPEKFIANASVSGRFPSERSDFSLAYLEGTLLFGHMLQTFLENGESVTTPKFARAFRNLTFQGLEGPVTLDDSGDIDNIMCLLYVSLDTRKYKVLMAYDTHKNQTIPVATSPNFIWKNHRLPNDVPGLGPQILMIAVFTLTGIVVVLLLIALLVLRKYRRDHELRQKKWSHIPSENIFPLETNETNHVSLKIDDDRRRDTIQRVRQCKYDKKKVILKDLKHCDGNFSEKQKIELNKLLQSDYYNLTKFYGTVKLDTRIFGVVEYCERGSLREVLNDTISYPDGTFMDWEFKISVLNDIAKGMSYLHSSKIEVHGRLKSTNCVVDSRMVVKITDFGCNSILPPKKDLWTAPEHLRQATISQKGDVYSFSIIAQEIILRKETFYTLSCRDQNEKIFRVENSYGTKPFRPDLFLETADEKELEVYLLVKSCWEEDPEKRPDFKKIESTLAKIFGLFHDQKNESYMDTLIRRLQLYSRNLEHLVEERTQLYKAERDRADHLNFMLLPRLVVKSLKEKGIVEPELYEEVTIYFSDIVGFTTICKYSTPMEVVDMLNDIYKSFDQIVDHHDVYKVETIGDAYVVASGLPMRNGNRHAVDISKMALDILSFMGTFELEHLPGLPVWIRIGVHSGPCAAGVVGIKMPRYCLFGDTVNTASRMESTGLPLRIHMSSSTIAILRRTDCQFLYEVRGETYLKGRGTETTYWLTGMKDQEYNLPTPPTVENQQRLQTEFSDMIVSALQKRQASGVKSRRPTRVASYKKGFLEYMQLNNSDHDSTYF
Method: To determine whether radiolabelling affected the binding of the compound, labelled compounds were tested for their ability to bind the receptor. Briefly HPLC purified radiolabelled compounds (ca. 0.05 nM) were incubated with 6 μg/150 μl final volume of rat intestinal membrane (one hour), in the presence and absence of competing peptide (50 μM ST5-18). Samples were filtered (GF/B filters, Whatman) to retrieve bound radiolabelled peptide and counted to determine % Bound/Free. Non-specific binding accounted for less than 1% in all cases.
In order to ensure that potency was maintained post-labelling, an assay measuring binding of labelled compounds was developed.

[5] = system: sub-cutaneous T84 tumours (T84 human colon carcinoma cells); assay: Biodistribution in a subcutaneous tumour model; type: in vivo, mouse; conditions: 60 min p.i.
Method: The sub-cutaneous model was used as an appropriate initial in vivo screen. Briefly, mice (female nude CD-1, ca. 20 g; Charles River) were injected sub-cutaneously into the neck with T84 human colon carcinoma cells (0.1 ml, 1×10^8 cells/ml in medium) through a 23-gauge needle and allowed to develop tumours over 6-8 weeks.
At least three animals per test point were studied. Results are expressed as % injected dose per gram (% ID/g) of tissue.
Compounds were screened for their uptake into sub-cutaneous T84 tumours in the mouse (Table IV). This model allows assessment of the imageability of CA1-ST5-18 by allowing comparison between tumour and background tissue uptake.

[6] = target: T1, ST receptor (rat intestinal membrane); assay: Competition binding assay against [125I]ST1-17
Method: Compounds were assessed for their potency by radioligand binding assay to determine inhibition constant (Ki) as a measure of potency of binding. Methods are described elsewhere, but briefly, [^125I]ST1-17 was competed with cold ST compounds (0.0001-50 μM) in 96 well plates containing ca. 1 μg rat intestinal membrane and incubated 1 hr, 37° C. Samples were filtered (GF/B filters, Whatman) to retrieve bound radiolabelled peptide and counted to determine % Bound/Free.
Potency of compounds was determined by inhibition constant (Ki) for their ability to compete with radioligand, [^125I]ST1-17.

[7] = Mean Ki value (nM), competition with [125I]ST1-17, ca. 1 μg rat intestinal membrane, 1 hr, 37° C., means of triplicate wells

99mTc-labelled CA1-ST5-18: CA1-ST5-18 peptide-chelate conjugate radiolabelled with 99mTc (CCELCCNPACAGCY; disulfide (positions not given here); not fully specified (N-terminus); ends not checked; also: 99mTc label chelated by CA1, three disulfides, pairing not given here)
Tumour to liver ratio (image) ([1]; 15 minutes): 1.1 | Tumour to liver ratio (image) ([1]; 60 minutes): 2 | Tumour to liver ratio (image) ([1]; 120 minutes): 4 | tumour:liver ratio based on ROI analysis [2]: 1.5-3.0 | uptake into tumour (FIG. 5) [3]: good uptake | binding, % of added radioactive material [4]: 6% | excreted / cleared via urine [5]: greater than 90%

C/C(=N/O)C(C)(C)NCCN(CCNC(=O)CCC(=O)N[C@H]1CSSC[C@@H]2NC(=O)[C@@H]3CSSC[C@@H](C(=O)N[C@@H](Cc4ccc(O)cc4)C(=O)O)NC(=O)CNC(=O)[C@H](C)NC(=O)[C@H](CSSC[C@H](NC1=O)C(=O)N[C@@H](CCC(=O)O)C(=O)N[C@@H](CC(C)C)C(=O)N3)NC(=O)[C@H](C)NC(=O)[C@@H]1CCCN1C(=O)[C@H](CC(N)=O)NC2=O)CCNC(C)(C)/C(C)=N\O [CA1-ST5-18]
Ki [6, 7]: 2.8 nM | Ki ([6]; Mean Ki value (nM), mock-labelled (subjected to the radiolabelling protocol in the absence of radiometal)): 3.5 nM

C/C(=N/O)C(C)(C)NCCN(CCNC(=O)CCC(=O)NCC(=O)NCC(=O)NCC(=O)NC(CCC(=O)O)C(=O)NC(CCC(=O)O)C(=O)NC(CCC(=O)O)C(=O)N[C@H]1CSSC[C@@H]2NC(=O)[C@@H]3CSSC[C@@H](C(=O)N[C@@H](Cc4ccc(O)cc4)C(=O)O)NC(=O)CNC(=O)[C@H](C)NC(=O)[C@H](CSSC[C@H](NC1=O)C(=O)N[C@@H](CCC(=O)O)C(=O)N[C@@H](CC(C)C)C(=O)N3)NC(=O)[C@H](C)NC(=O)[C@@H]1CCCN1C(=O)[C@H](CC(N)=O)NC2=O)CCNC(C)(C)/C(C)=N\O (some centres unmarked) [CA1-gly3-Dglu3-ST5-18]
Ki ([6]; Ki, competition binding): 1 nM

CCOC(C)SCC(=O)NC(CCCC(=O)N[C@@H](C)C(=O)N[C@@H](C)C(=O)N[C@@H](CCC(=O)O)C(=O)N[C@@H](CC(C)C)C(=O)N[C@@H](C)C(=O)N[C@@H](C)C(=O)N[C@@H](CC(N)=O)C(=O)N1CCC[C@H]1C(=O)N[C@@H](C)C(=O)N[C@@H](C)C(=O)N[C@@H](C)C(=O)NCC(=O)N[C@@H](C)C(=O)N[C@@H](Cc1ccc(O)cc1)C(=O)O)C(=O)NCC(=O)NCC(=O)O (some centres unmarked) [CA3-ST5-18(cys-ala), reference compound] (X1-AAELAANPAAAGAY-OH)
Ki value (nM) ([6]; Table IV screening data): none | Ki ([6]; competition binding): no binding | Mean Ki value (nM) ([6]; competition with [125I]ST1-17, ca. 1 μg rat intestinal membrane, 1 hr, 37° C., means of triplicate wells): none

CCOC(C)SCC(=O)NC(CCCC(=O)N[C@H]1CSSC[C@@H]2NC(=O)[C@@H]3CSSC[C@@H](C(=O)N[C@@H](Cc4ccc(O)cc4)C(=O)O)NC(=O)CNC(=O)[C@H](C)NC(=O)[C@H](CSSC[C@H](NC1=O)C(=O)N[C@@H](CCC(=O)O)C(=O)N[C@@H](CC(C)C)C(=O)N3)NC(=O)[C@H](C)NC(=O)[C@@H]1CCCN1C(=O)[C@H](CC(N)=O)NC2=O)C(=O)NCC(=O)NCC(=O)O (some centres unmarked) [CA3-ST5-18]
Ki ([6]; Ki value (nM), Table IV screening data): 0.8 nM | Ki ([6]; Ki, competition binding): 0.8 nM | Ki [6, 7]: 0.8 nM

CC(C)C[C@@H]1NC(=O)[C@H](CCC(=O)O)NC(=O)[C@@H]2CSSC[C@@H]3NC(=O)[C@H](C)NC(=O)[C@@H]4CCCN4C(=O)[C@H](CC(N)=O)NC(=O)[C@H](CSSC[C@H](N)C(=O)N2)NC(=O)[C@H](CSSC[C@@H](C(=O)N[C@@H](Cc2ccc(O)cc2)C(=O)O)NC(=O)CNC(=O)[C@H](C)NC3=O)NC1=O [ST5-18]
Ki ([6]; Ki, competition binding): 0.4 nM
